# According to PMC3162300 (Journal of Natural Products, 2011):
# Marks after values point to notes of the source that are not given here.
# How the values were obtained:
# [1] = test system: croton oil-induced ear dermatitis (edema); experiment: Croton oil-induced mouse ear dermatitis: edematous response
# IKK2 = target: T1, IKK2 (Homo sapiens, UniProt O14920); experiment: IKK2 enzymatic activity assay; assay type: biochemical; details: 400 nM
# T1 sequence (O14920 1-756): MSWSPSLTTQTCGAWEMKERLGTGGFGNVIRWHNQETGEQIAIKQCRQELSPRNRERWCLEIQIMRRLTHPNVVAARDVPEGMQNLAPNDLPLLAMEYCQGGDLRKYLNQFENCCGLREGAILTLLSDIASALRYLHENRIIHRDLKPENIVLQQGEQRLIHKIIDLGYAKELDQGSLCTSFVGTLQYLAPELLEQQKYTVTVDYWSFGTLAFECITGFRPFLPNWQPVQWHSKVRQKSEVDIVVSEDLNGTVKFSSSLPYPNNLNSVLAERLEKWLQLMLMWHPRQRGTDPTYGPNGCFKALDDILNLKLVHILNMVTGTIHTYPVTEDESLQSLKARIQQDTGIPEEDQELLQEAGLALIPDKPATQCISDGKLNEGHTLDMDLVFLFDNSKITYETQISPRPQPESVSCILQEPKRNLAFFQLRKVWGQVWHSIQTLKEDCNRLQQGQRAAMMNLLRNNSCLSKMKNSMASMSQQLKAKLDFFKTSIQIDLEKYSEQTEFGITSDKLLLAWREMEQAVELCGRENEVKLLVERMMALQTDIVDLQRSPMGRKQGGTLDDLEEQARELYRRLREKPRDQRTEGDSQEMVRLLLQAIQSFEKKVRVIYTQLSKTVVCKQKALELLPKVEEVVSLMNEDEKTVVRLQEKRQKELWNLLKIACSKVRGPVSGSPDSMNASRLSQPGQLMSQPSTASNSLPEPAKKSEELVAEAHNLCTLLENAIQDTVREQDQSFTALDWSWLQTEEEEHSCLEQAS
# 5-LO = target: T2, 5-LO (Homo sapiens, UniProt P09917); assay type: cell-based; details: read-out: inhibition of leukotriene formation
# T2 sequence (P09917 1-674): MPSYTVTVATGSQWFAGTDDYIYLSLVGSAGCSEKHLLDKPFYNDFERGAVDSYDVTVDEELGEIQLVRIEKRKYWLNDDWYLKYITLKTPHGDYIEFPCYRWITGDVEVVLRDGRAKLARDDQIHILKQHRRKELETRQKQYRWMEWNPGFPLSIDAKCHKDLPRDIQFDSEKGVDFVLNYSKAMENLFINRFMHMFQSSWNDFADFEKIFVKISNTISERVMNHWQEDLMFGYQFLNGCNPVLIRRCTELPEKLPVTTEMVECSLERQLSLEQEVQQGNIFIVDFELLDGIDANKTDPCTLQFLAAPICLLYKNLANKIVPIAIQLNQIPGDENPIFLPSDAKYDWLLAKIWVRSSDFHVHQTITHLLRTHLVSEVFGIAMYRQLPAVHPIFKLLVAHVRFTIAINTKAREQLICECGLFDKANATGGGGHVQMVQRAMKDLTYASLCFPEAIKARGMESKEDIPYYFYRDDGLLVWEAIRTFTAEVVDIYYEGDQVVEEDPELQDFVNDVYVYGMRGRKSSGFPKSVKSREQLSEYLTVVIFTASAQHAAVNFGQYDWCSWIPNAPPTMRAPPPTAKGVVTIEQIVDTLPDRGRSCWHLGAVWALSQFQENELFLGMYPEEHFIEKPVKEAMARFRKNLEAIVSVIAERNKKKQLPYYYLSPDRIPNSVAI
# [2] = test system: croton oil-induced ear dermatitis (ear tissue histology); experiment: Histological analysis of ear tissue after croton oil dermatitis
# COX-2 = target: T3, COX-2 (Ovis aries, UniProt P79208); experiment: COX-2 inhibition assay; assay type: biochemical, sheep; details: read-out: inhibition of COX-2
# T3 sequence (P79208 17-603): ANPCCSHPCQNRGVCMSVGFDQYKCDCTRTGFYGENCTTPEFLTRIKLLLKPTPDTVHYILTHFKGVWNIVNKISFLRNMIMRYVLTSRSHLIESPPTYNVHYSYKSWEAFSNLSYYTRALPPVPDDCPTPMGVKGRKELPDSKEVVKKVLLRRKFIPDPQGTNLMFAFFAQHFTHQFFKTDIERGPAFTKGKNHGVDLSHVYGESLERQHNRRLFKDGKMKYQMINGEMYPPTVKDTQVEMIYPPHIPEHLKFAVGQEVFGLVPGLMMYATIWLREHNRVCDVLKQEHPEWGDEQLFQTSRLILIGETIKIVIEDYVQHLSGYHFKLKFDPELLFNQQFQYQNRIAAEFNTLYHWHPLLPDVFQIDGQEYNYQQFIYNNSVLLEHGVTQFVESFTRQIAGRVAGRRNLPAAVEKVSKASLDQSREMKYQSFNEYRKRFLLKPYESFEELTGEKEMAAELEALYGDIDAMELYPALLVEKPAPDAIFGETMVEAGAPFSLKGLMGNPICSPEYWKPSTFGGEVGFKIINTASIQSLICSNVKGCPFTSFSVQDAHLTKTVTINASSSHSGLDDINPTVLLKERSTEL
# COX-1 = target: T4, COX-1 (Ovis aries, UniProt P05979); experiment: COX-1 inhibition assay; assay type: biochemical, ram; details: read-out: inhibition of COX-1
# T4 sequence (P05979 25-600): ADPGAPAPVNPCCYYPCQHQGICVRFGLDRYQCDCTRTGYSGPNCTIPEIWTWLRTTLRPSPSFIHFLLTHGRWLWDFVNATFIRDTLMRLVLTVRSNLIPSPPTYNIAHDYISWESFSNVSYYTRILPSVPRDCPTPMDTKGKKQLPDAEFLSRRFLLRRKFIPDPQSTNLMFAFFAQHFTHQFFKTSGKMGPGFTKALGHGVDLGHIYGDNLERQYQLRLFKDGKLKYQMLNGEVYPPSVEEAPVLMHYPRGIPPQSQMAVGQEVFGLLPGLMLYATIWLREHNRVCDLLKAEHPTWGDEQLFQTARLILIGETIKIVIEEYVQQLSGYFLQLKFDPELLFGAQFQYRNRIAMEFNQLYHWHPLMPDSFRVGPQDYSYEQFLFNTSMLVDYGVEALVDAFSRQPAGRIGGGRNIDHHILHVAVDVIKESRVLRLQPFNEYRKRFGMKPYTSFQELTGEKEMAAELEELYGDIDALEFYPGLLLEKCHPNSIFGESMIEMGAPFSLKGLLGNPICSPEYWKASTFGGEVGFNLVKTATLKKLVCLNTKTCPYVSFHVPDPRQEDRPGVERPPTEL
# [3] = DPPH free-radical-scavenging assay; details: up to 100 μM
# [4] = dose giving 50% inhibition of edema, 6 h, topical
# [5] = topical dose 0.10 μmol/cm^2, 6 h
# [6] = topical dose 0.30 μmol/cm^2, 6 h
# [7] = topical dose 1.00 μmol/cm^2, 6 h
smiles,measurement,setting,value
"C/C=C/c1ccc2c(c1)C(CO)[C@@H](c1ccc(O)cc1)O2 (stereo in doubt) [compound 4, (2S,3S)-2,3-dihydro-3-hydroxymethyl-2-(4-hydroxyphenyl)-5-(E)-propenylbenzofuran]",ID50 (μg/cm^2),[1]; [4],118 μg/cm^2
same,ID50 (μmol/cm^2),[1]; [4],0.42 μmol/cm^2
same,edema (mg) mean ± SE,[1]; [5],5.7 ± 0.4 ^a mg
same,edema (mg) mean ± SE,[1]; [6],4.4 ± 0.3 ^a mg
same,edema (mg) mean ± SE,[1]; [7],1.7 ± 0.2 ^a mg
NC(=O)Nc1sc(-c2ccc(F)cc2)cc1C(N)=O [IKK2 inhibitor IV],effect on IKK2 enzymatic activity,IKK2,completely suppressed IKK2 enzymatic activity to the background level
"COc1cc(O)ccc1-c1cc2cc(CCCO)ccc2o1 [compound 1, 5-(3-hydroxypropyl)-2-(2-methoxy-4-hydroxyphenyl)benzofuran]",inhibition at 50 µM,5-LO,80.2 to 94.6%
same,ID50 (μg/cm^2),[1]; [4],134 μg/cm^2
same,edema (mg) mean ± SE,[1]; [5],6.0 ± 0.3 ^a mg
same,edema (mg) mean ± SE,[1]; [6],4.7 ± 0.3 ^a mg
same,edema (mg) mean ± SE,[1]; [7],1.7 ± 0.1 ^a mg
"C[C@@H]1[C@H](C)[C@@H](c2ccc(O)cc2)O[C@@H]1c1ccc(O)cc1 [compound 2, (−)-larreatricin]",ID50 (μg/cm^2),[1]; [4],131 μg/cm^2
same,edema (mg) mean ± SE,[1]; [5],5.6 ± 0.3 ^a mg
same,edema (mg) mean ± SE,[1]; [6],4.2 ± 0.4 ^a mg
same,edema (mg) mean ± SE,[1]; [7],2.3 ± 0.2 ^a mg
"C[C@@H]1[C@H](C)[C@@H](c2ccc(O)cc2)O[C@H]1c1ccc(O)cc1 [compound 3, meso-3,3′-didemethoxynectandrin B]",ID50 (μg/cm^2),[1]; [4],102 μg/cm^2
same,edema (mg) mean ± SE,[1]; [5],5.9 ± 0.3 ^a mg
same,edema (mg) mean ± SE,[1]; [6],3.3 ± 0.3 ^a mg
same,edema (mg) mean ± SE,[1]; [7],1.9 ± 0.2 ^a mg
"COc1ccc(-c2cc3cc(CCCO)ccc3o2)c(O)c1 [compound 5, 2-(2-hydroxy-4-methoxyphenyl)-5-(3-hydroxypropyl)benzofuran]",histological finding in ear tissue,"[2]; 0.4 μmol/cm^2, 3-48 h",general reduction of these vascular and cellular changes due to inflammation
same,inhibition at 50 µM,5-LO,80.2 to 94.6%
same,ID50 (μg/cm^2),[1]; [4],107 μg/cm^2
same,edema (mg) mean ± SE,[1]; [5],5.2 ± 0.3 ^a mg
same,edema (mg) mean ± SE,[1]; [6],3.4 ± 0.2 ^a mg
same,edema (mg) mean ± SE,[1]; [7],2.3 ± 0.2 ^a mg
"C/C=C/c1ccc2oc(-c3ccc(O)cc3O)cc2c1 [compound 6, 2-(2,4-dihydroxyphenyl)-5-(E)-propenylbenzofuran]",inhibition at 50 µM,COX-2,57.2 to 83.3%
same,inhibition at 50 µM,COX-1,57.2 to 83.3%
same,ID50 (μg/cm^2),[1]; [4],160 μg/cm^2
same,edema (mg) mean ± SE,[1]; [5],5.9 ± 0.3 ^a mg
same,edema (mg) mean ± SE,[1]; [6],4.9 ± 0.3 ^a mg
same,edema (mg) mean ± SE,[1]; [7],2.5 ± 0.3 ^a mg
"C/C=C/c1ccc2c(c1)[C@@H](C)[C@H](c1ccc(O)cc1)O2 [compound 7, (+)-conocarpan]",histological finding in ear tissue,"[2]; 0.4 μmol/cm^2, 3-48 h",general reduction of these vascular and cellular changes due to inflammation
same,effect in DPPH assay,[3],no effect
same,inhibition at 50 µM,5-LO,80.2 to 94.6%
same,ID50 (μg/cm^2),[1]; [4],82 μg/cm^2
same,edema (mg) mean ± SE,[1]; [5],5.2 ± 0.4 ^a mg
same,edema (mg) mean ± SE,[1]; [6],3.8 ± 0.2 ^a mg
same,edema (mg) mean ± SE,[1]; [7],1.3 ± 0.1 ^a mg
"C/C=C/c1ccc2oc(-c3ccc(O)cc3)cc2c1 [compound 8, 2-(4-hydroxyphenyl)-5-(E)-propenylbenzofuran]",inhibition at 50 µM,COX-2,57.2 to 83.3%
same,effect in DPPH assay,[3],no effect
same,inhibition at 50 µM,COX-1,57.2 to 83.3%
same,ID50 (μg/cm^2),[1]; [4],110 μg/cm^2
same,edema (mg) mean ± SE,[1]; [5],5.9 ± 0.3 ^a mg
same,edema (mg) mean ± SE,[1]; [6],4.5 ± 0.3 ^a mg
same,edema (mg) mean ± SE,[1]; [7],1.8 ± 0.3 ^a mg
"C/C=C/c1ccc2oc(-c3ccc(O)cc3OC)cc2c1 [compound 9, rataniaphenol III]",inhibition at 50 µM,COX-2,57.2 to 83.3%
same,inhibition at 50 µM,COX-1,57.2 to 83.3%
same,ID50 (μg/cm^2),[1]; [4],134 μg/cm^2
same,edema (mg) mean ± SE,[1]; [5],6.1 ± 0.2 mg
same,edema (mg) mean ± SE,[1]; [6],4.4 ± 0.3 ^a mg
same,edema (mg) mean ± SE,[1]; [7],2.1 ± 0.3 ^a mg
"C/C=C/c1ccc2oc(-c3ccc(OC)cc3O)cc2c1 [compound 10, rataniaphenol I]",ID50 (μg/cm^2),[1]; [4],160 μg/cm^2
same,edema (mg) mean ± SE,[1]; [5],6.2 ± 0.3 mg
same,edema (mg) mean ± SE,[1]; [6],4.6 ± 0.3 ^a mg
same,edema (mg) mean ± SE,[1]; [7],2.5 ± 0.3 ^a mg
"C/C=C/c1ccc2oc(-c3ccc(O)cc3)c(C)c2c1 [compound 11, rataniaphenol II]",inhibition at 50 µM,COX-2,57.2 to 83.3%
same,effect in DPPH assay,[3],no effect
same,inhibition at 50 µM,COX-1,57.2 to 83.3%
same,ID50 (μg/cm^2),[1]; [4],106 μg/cm^2
same,edema (mg) mean ± SE,[1]; [5],6.0 ± 0.4 mg
same,edema (mg) mean ± SE,[1]; [6],4.0 ± 0.2 ^a mg
same,edema (mg) mean ± SE,[1]; [7],1.7 ± 0.2 ^a mg
"C[C@]12CCC(=O)C=C1CC[C@@H]1[C@@H]2[C@@H](O)C[C@@]2(C)[C@H]1CC[C@]2(O)C(=O)CO [hydrocortisone, reference compound]",histological finding in ear tissue,"[2]; 0.04 μmol/cm^2, 3-48 h",attenuation of all the vascular and cellular signs of inflammation
same,ID50 (μg/cm^2),[1]; [4],11 μg/cm^2
same,edema (mg) mean ± SE,"[1]; topical dose 0.01 μmol/cm^2, 6 h",4.9 ± 0.3 ^a mg
same,edema (mg) mean ± SE,"[1]; topical dose 0.03 μmol/cm^2, 6 h",3.1 ± 0.3 ^a mg
same,edema (mg) mean ± SE,[1]; [5],1.6 ± 0.2 ^a mg
"COc1ccc2c(c1)c(CC(=O)O)c(C)n2C(=O)c1ccc(Cl)cc1 [indomethacin, reference compound]",histological finding in ear tissue,"[2]; 0.4 μmol/cm^2, 3-48 h",reduced mast cell degranulation and leukocyte infiltration at all observation times
same,ID50 (μg/cm^2),[1]; [4],104 μg/cm^2
same,edema (mg) mean ± SE,[1]; [5],5.2 ± 0.4 ^a mg
same,edema (mg) mean ± SE,[1]; [6],3.4 ± 0.3 ^a mg
same,edema (mg) mean ± SE,[1]; [7],1.4 ± 0.2 ^a mg
